Structures can show the parent of a compound that is named as a salt.
Legend:
[1] = test system: Trichophyton mentagrophytes CDC27; experiment: in vitro antifungal activity, Trichophyton mentagrophytes (MIC); type: cell-based; settings: 35° C., 48 hours, RPMI 1640 plus 10% fetal calf serum, 95-100% inhibition of growth; for MIC: read-out: minimum inhibitory concentration (MIC), T.m.
Protocol: (§1) The antifungal activity was assayed in vitro against Candida abicans A26, Trichophyton mentagrophytes CDC27, and Aspergillus flavus M152. The inocula, previously frozen under liquid nitrogen in a lactose, glycerol and water solution, were standardized by counting spores with a hemocytometer. Final concentrations (C. albicans, 1×10^5 cells/m; T. mentagrophytes, 1×10^6 cells/ml; A. flavus, 1×10^5 cells/ml) in RPMI 1640 plus 10% fetal calf serum were added to each of the 96 wells of a microtiter plate (100 μl/well).The compounds to be tested were solubilized in either water or ethanol and added to the microtiter wells in serial dilutions to give final concentrations in the range 0.039-20 μg/ml. The plates were incubated at 35° C. for 48 hours. The minimum inhibitory concentration (MIC) values were determined as the highest dilution showing 95-100% inhibition of growth.
(§2) ^a Minimum inhibitory concentration expressed in μg/ml
^d T.m. means Trichophyton mentagrophytes CDC27

[2] = test system: Candida albicans A26; experiment: in vitro antifungal activity, Candida albicans (MIC); type: cell-based; settings: 35° C., 48 hours, RPMI 1640 plus 10% fetal calf serum, 95-100% inhibition of growth; for MIC: read-out: minimum inhibitory concentration (MIC), C.a.
Protocol: as §1, §2
^b C.a. means Candida albicans A26

[3] = test system: Aspergillus flavus M152; experiment: in vitro antifungal activity, Aspergillus flavus (MIC); type: cell-based; settings: 35° C., 48 hours, RPMI 1640 plus 10% fetal calf serum, 95-100% inhibition of growth; for MIC: read-out: minimum inhibitory concentration (MIC), A.f.
Protocol: as §1, §2
^c A.f. means Aspergillus flavus M152

[4] = test system: thromboplastin clotting time in human plasma; experiment: prothrombin time test (thromboplastin clotting time in human plasma); type: biochemical; settings: 37° C., human plasma
Protocol: Briefly, to 0.1 ml of each of human plasma, normal saline and thromboplastin was added 0.03 ml of the test compound of the present invention (2 mg/ml in 50 percent methanol). The clotting time was measured at 37° C. with a Fibrometer.
^a Expressed in seconds
^b Concentration of compound tested in micrograms per milliliter of […]

[5] = 11 micrograms per milliliter of plasma
[6] = 22 micrograms per milliliter of plasma
[7] = 45 micrograms per milliliter of plasma
[8] = 90 micrograms per milliliter of plasma
[9] = 180 micrograms per milliliter of plasma
[10] = 11 micrograms per milliliter of plasma, hydrochloride
[11] = 22 micrograms per milliliter of plasma, hydrochloride
[12] = 45 micrograms per milliliter of plasma, hydrochloride
[13] = 90 micrograms per milliliter of plasma, hydrochloride

Compound	MIC [1]	MIC [2]	MIC [3]	plasma prothrombin time [4, 7]	plasma prothrombin time [4, 8]	plasma prothrombin time [4, 9]	other results
4-(2-Butenyloxy)-N,N,α-trimethylbenzenepropanamine hydrochloride [Example 56]	–	–	–	–	–	–	minimum inhibitory concentration (MIC), T.m. [1]: 0.312 µg/mL; minimum inhibitory concentration (MIC), C.a. [2]: 0.625 µg/mL; minimum inhibitory concentration (MIC), A.f. [3]: 5 µg/mL
CC(CCc1ccc(OCCC2CCCCC2)cc1)NCCN(C)C (centres unmarked) [Example 46, N'-[3-[4-(2-Cyclohexylethoxy)phenyl]-1-methylpropyl]-N,N-dimethyl-1,2-ethanediamine dihydrochloride]	10 µg/mL	10 µg/mL	20 µg/mL	–	–	–	–
CC(CCc1ccc(OC2CCCC2)cc1)NCCN1CCOCC1 (centres unmarked) [Example 47, N-[3-[4-(Cyclopentyloxy)phenyl]-1-methylpropyl]-4-morpholineethanamine dihydrochloride]	20 µg/mL	10 µg/mL	10 µg/mL	–	–	–	–
CCCCCCCOc1ccc(CCC(C)NCCN(C)C)cc1 (centres unmarked) [Example 49, N'-[3-[4-(Heptyloxy)phenyl]-1-methylpropyl]-N,N-dimethyl-1,2-ethanediamine dihydrochloride]	–	–	–	36 s	167 s	260 s	plasma prothrombin time [4, 5]: 22 s; plasma prothrombin time [4, 6]: 34 s
CCCCCCCCCCOc1ccc(CCC(C)N)cc1 (stereo not drawn) [Example 50, 4-(Decyloxy)-α-methylbenzenepropanamine hydrochloride]	–	–	–	21 s	36 s	100 s	–
CCCCCCCOc1ccc(CCC(C)N)cc1 (stereo not drawn) [Example 51, 4-(Heptyloxy)-α-methylbenzenepropanamine hydrochloride]	–	–	–	25 s	52 s	> 300 s	–
CCCCCCCCCCCCOc1ccc(CCC(C)NCCN(C)C)cc1 (centres unmarked) [Example 52, N'-[3-[4-(Dodecyloxy)phenyl]-1-methylpropyl]-N,N-dimethyl-1,2-ethanediaminedihydrochloride]	–	–	–	–	20 s	87 s	–
CCCCCCCCCOc1ccc(CCC(C)NCCN2CCOCC2)cc1 (centres unmarked) [Example 53, N-[1-Methyl-3-[4-(nonyloxy)phenyl]propyl]-4-morpholineethanamine dihydrochloride]	–	–	–	23 s	53 s	240 s	–
CCCCCCCCCOc1ccc(CCC(C)NCCN(C)C)cc1 (centres unmarked) [Example 54, N,N-Dimethyl-N'-[1-methyl-3-[4-(nonyloxy)phenyl]propyl]-1,2-ethanediamine dihydrochloride]	–	–	–	37 s	99 s	> 300 s	–
CSCCOc1ccc(CCC(C)N(C)C)cc1 (stereo not drawn) [Example 57, 4-(2-Methylthioethoxy)-N,N,α-trimethylbenzenepropanamine hydrochloride]	0.312 µg/mL	1.25 µg/mL	20 µg/mL	–	–	–	–
CC(CCc1ccc(OCCN(C)C)cc1)N(C)C (stereo not drawn) [Example 58, 4-[2-(Dimethylamino)ethoxy]-N,N,α-trimethylbenzenepropylamine dihydrochloride]	10 µg/mL	1.25 µg/mL	20 µg/mL	–	–	–	–
CC(CCc1ccc(OCCCC#N)cc1)N(C)C (centres unmarked) [Example 59, 4-8 4-[3-(Dimethylamino)butyl]phenoxy]butanenitrile hydrochloride]	20 µg/mL	2.5 µg/mL	20 µg/mL	–	–	–	–
CC(CCc1ccc(OCC(=O)C(C)(C)C)cc1)N(C)C (centres unmarked) [Example 60, 3,3-Dimethyl-1-[4-[3-(dimethylamino)-1-butyl]phenoxy]-2-butenone hydrochloride]	0.625 µg/mL	10 µg/mL	10 µg/mL	–	–	–	–
CC(CCc1ccc(OCCn2ccnc2)cc1)N(C)C (stereo not drawn) [Example 61, N,N,α-Trimethyl-4-[2-(1H-imidazol-1-yl)ethoxy]benzenepropanamine]	10 µg/mL	5 µg/mL	> 20 µg/mL	–	–	–	–
CC(CCc1ccc(OCCn2cncn2)cc1)N(C)C (stereo not drawn) [Example 62, N,N,α-Trimethyl-4-[2-(1H-1,2,4-triazol-1-yl)ethoxy]benzenepropanamine]	10 µg/mL	10 µg/mL	20 µg/mL	–	–	–	–
CC(CCc1ccc(OCc2cccc(F)c2)cc1)N(C)C (stereo not drawn) [Example 63, N,N,α-Trimethyl-4-[(3-fluorophenyl)methoxy]benzenepropanamine hydrochloride]	1.25 µg/mL	0.625 µg/mL	5 µg/mL	–	–	–	–
CC(CCc1ccc(OCc2ccc(Cl)cc2Cl)cc1)N(C)C (stereo not drawn) [Example 64, N,N,α-Trimethyl-4-(2,4-dichlorophenyl)methoxy]benzenepropanamine hydrochloride]	5 µg/mL	20 µg/mL	5 µg/mL	–	–	–	–
CC(CCc1ccc(OCc2ccc(C(F)(F)F)cc2)cc1)N(C)C (stereo not drawn) [Example 65, N,N,α-Trimethyl-4-[[4-(trifluoromethyl)phenyl]methoxy]-benzenepropanamine hydrochloride]	5 µg/mL	20 µg/mL	10 µg/mL	–	–	–	–
CC(CCc1ccc(OS(=O)(=O)c2ccccc2)cc1)N(C)C (centres unmarked) [Example 66, Benzenesulfonic acid 4-[3-(dimethylamino)butyl]phenylester]	5 µg/mL	10 µg/mL	20 µg/mL	–	–	–	–
CC(CCc1ccc(OCCC(C)(C)C)cc1)N(C)C.Cl (centres unmarked) [Example 75, 4-(3,3-Dimethylbutoxy)-N,N,αtrimethylbenzenepropanamine hydrochloride]	–	–	–	–	–	90 s	plasma prothrombin time [4, 10]: 18 s; plasma prothrombin time [4, 11]: 23 s; plasma prothrombin time [4, 12]: 32 s; plasma prothrombin time [4, 13]: 52 s
COCCOc1ccc(CCC(C)N(C)C)cc1.Cl (stereo not drawn) [Example 76, 4-(2-Methoxyethoxy)-N,N,α-trimethylbenzenepropanamine hydrochloride]	–	–	–	17 s	17 s	18 s	–
CCCCOc1ccc(CCC(C)N2CCCC2)cc1.Cl (centres unmarked) [Example 77, 1-[3-[4-(Butoxy)phenyl]-1-methylpropyl]-pyrrolidine hydrochloride]	–	–	–	23 s	24 s	53 s	plasma prothrombin time [4, 5]: 15 s; plasma prothrombin time [4, 6]: 16 s
CCCCOc1ccc(CC(C)CN(C)C)cc1.Cl (stereo not drawn) [Example 78, 4-Butoxy-N,N,β-trimethylbenzenepropanamine hydrochloride]	–	–	–	23 s	31 s	67 s	–
CC(CCc1ccc(OCCC(C)(C)C)cc1)N(C)C.Cl (stereo not drawn) [Example 79, 4-(3,3-Dimethylbutoxy)-N,N,α-trimethylbenzenepropanamine hydrochloride]	–	–	–	–	–	90 s	plasma prothrombin time [4, 10]: 19 s; plasma prothrombin time [4, 11]: 21 s; plasma prothrombin time [4, 12]: 31 s; plasma prothrombin time [4, 13]: 55 s
CC(CCc1ccc(OCC2CCCC2)cc1)N(C)C (stereo not drawn) [Example 80, 4-Cyclopentylmethoxy-N,N-α-trimethylbenzenepropanamine hydrochloride]	–	–	–	–	–	–	plasma prothrombin time [4, 5]: 17 s; plasma prothrombin time [4, 6]: 19 s; plasma prothrombin time [4, 12]: 24 s; plasma prothrombin time [4, 13]: 43 s; plasma prothrombin time ([4]; 180 micrograms per milliliter of plasma, hydrochloride): 88 s
CC(CCc1ccc(OCC2CCCC2)cc1)N(C)C (stereo not drawn) [Example 81, 4-Cyclopentylmethoxy-N,N-α-trimethylbenzenepropanamine]	–	–	–	20 s	25 s	47 s	–
CC(CCc1ccc(OCc2ccc(F)cc2)cc1)N(C)C.Cl (stereo not drawn) [Example 82, 4-[(4-Fluorophenyl)methoxy]-N,N,α-trimethylbenzenepropanamine hydrochloride]	–	–	–	24 s	29 s	75 s	plasma prothrombin time [4, 5]: 18 s; plasma prothrombin time [4, 6]: 19 s
CC(CCc1ccc(C(C)(C)C)cc1)N(C)C.Cl (stereo not drawn) [Example 83, 4-(1,1-Dimethylethyl)-N,N,α-trimethylbenzenepropanamine hydrochloride]	–	–	–	21 s	26 s	37 s	–

Reference: patent publication US5135955A, “Propanamine derivatives” (Eli Lilly and Company, priority 1989, dated 1992)
